Results taken from patent US20250195521A1 (Revolution Medicines, Inc., priority 2020, published 2025).
Where two headings read alike, the source gives them in different places.

Tests used:
[1] = tested on: Capan-1 cells (K-Ras G12V); assay: CellTiter-Glo cell viability, Capan-1; assay type: cell-based, human; settings: K-Ras G12V, 5-day treatment, read-out: Capan-1 Cell Viability IC50
In short: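 Viability read by luminescence on day 5 after direct compound addition to cells, following ~30 min room-temperature equilibration. Values expressed as percent of mean DMSO signal, curves fitted with a four-parameter logistic model.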

[2] = tested on: K-Ras G12C (NCI-H358 cells); assay: Potency assay: pERK in NCI-H358 cells; assay type: cell-based, human; settings: Homo sapiens; NCI-H358 cells, 4 hours; read-out: pERK EC50 (H358 KRAS G12C)
In short: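 Cells plated the day before were exposed for 4 h at 37° C, 5% CO2 to a 10-point, 3-fold DMSO dilution series (10 mM top stock), in duplicate. Phospho-ERK was read by AlphaLISA SureFire Ultra or by In-Cell Western with DRAQ5 DNA stain, and IC50 came from a 4-parameter sigmoidal fit.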

[3] = biological target: KRAS WT (Homo sapiens (Human), UniProt P01116+P62937); assay: Ras-Raf disruption/FRET/MOA assay (BRAF RBD, Cyclophilin A); assay type: biochemical; settings: read-out: KRAS WT FRET data IC50
Sequence of KRAS WT (P01116 other isoform, or with tags, fused parts or gaps): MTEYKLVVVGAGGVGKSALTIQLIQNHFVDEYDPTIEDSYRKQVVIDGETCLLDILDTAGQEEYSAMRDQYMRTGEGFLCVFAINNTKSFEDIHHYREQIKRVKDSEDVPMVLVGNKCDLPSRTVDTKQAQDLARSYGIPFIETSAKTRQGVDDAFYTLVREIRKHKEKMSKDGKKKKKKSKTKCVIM
Sequence of KRAS WT (P62937 whole entry): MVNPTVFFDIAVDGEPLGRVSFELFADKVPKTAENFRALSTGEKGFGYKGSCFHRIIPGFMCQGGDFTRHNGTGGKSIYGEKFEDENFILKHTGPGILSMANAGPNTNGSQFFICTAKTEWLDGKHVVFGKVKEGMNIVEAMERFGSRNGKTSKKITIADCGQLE
Method: (§1) Compound is present in plate wells as a 10-point 3-fold dilution series starting at a final concentration of 30 μM. After incubation at 25° C. for 3 hours, a mixture of Anti-His Eu—W1024 and anti-GST allophycocyanin is then added to assay sample wells at final concentrations of 10 nM and 50 nM, respectively, and the reaction incubated for an additional 1.5 hours. […] Compounds that facilitate disruption of a Ras: RAF complex are identified as those eliciting a decrease in the TR-FRET ratio relative to DMSO control wells.
(§2) Disruption of B-Raf Ras-Binding Domain (BRAF^RBD) Interaction with K-Ras by Compounds of the Invention (Also Called a FRET Assay or an MOA Assay)
(§3) Note—The following protocol describes a procedure for monitoring disruption of K-Ras G12C (GMP-PNP) binding to BRAF^RBD by a compound of the invention. This protocol may also be executed substituting other Ras proteins or nucleotides.
(§4) The purpose of this biochemical assay was to measure the ability of test compounds to facilitate ternary complex formation between a nucleotide-loaded K-Ras isoform and Cyclophilin A; the resulting ternary complex disrupts binding to a BRAF^RBD construct, inhibiting K-Ras signaling through a RAF effector. Data is reported as IC50 values.
(§5) In assay buffer containing 25 mM HEPES pH 7.3, 0.002% Tween20, 0.1% BSA, 100 mM NaCl and 5 mM MgCl2, tagless Cyclophilin A, His6-K-Ras-GMPPNP, and GST-BRAF^RBD were combined in a 384-well assay plate at final concentrations of 25 μM, 12.5 nM and 50 nM, respectively. Compound was present in plate wells as a 10-point 3-fold dilution series starting at a final concentration of 30 μM. After incubation at 25° C. for 3 hours, a mixture of Anti-His Eu—W1024 and anti-GST allophycocyanin was then added to assay sample wells at final concentrations of 10 nM and 50 nM, respectively, and the reaction incubated for an additional 1.5 hours. […] Compounds that facilitate disruption of a K-Ras: RAF complex were identified as those eliciting a decrease in the TR-FRET ratio relative to DMSO control wells.

[4] = biological target: KRAS G12V (Homo sapiens (Human), UniProt P01116+P62937, G12V); assay: as above; assay type: biochemical; settings: read-out: KRAS G12V FRET IC50
Sequence of KRAS G12V (P01116 other isoform, or with tags, fused parts or gaps G12V): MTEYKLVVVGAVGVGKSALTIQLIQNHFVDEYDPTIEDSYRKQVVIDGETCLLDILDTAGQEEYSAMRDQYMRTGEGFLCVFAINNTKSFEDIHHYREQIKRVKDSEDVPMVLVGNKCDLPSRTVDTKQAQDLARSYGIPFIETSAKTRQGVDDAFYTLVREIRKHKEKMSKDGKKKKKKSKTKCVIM
Sequence of KRAS G12V (P62937 whole entry): as the sequence (P62937 whole entry) above
Method: as §1, §2, §3, §4, §5

[5] = biological target: NRAS G12C (Homo sapiens (Human), UniProt P01111+P62937, G12C); assay: as above; assay type: biochemical; settings: read-out: NRAS G12C FRET data IC50
Sequence of NRAS G12C (P01111 whole entry G12C): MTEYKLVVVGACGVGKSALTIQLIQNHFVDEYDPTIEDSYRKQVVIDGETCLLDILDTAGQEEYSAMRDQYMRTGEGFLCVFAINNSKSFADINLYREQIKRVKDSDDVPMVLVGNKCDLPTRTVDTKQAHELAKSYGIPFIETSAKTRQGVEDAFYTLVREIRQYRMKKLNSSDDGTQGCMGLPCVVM
Sequence of NRAS G12C (P62937 whole entry): as the sequence (P62937 whole entry) above
Method: as §1, §2, §3, §4, §5

[6] = biological target: KRAS G12D (Homo sapiens (Human), UniProt P01116+P62937, G12D); assay: as above; assay type: biochemical; settings: read-out: KRAS G12D FRET IC50
Sequence of KRAS G12D (P01116 other isoform, or with tags, fused parts or gaps G12D): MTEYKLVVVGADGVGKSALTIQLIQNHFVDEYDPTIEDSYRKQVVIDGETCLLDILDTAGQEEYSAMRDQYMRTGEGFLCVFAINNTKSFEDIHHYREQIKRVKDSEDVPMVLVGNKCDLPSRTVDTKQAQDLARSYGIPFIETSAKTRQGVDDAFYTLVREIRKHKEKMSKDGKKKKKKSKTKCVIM
Sequence of KRAS G12D (P62937 whole entry): as the sequence (P62937 whole entry) above
Method: as §1, §2, §3, §4, §5

[7] = biological target: KRAS G12S (Homo sapiens (Human), UniProt P01116+P62937, G12S); assay: as above; assay type: biochemical; settings: read-out: KRAS G12S FRET IC50
Sequence of KRAS G12S (P01116 other isoform, or with tags, fused parts or gaps G12S): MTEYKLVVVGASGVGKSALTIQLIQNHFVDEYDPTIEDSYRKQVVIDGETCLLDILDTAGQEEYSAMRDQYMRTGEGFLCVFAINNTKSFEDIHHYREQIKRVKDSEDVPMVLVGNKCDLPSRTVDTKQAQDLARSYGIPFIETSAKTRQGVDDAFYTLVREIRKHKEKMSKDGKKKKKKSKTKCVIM
Sequence of KRAS G12S (P62937 whole entry): as the sequence (P62937 whole entry) above
Method: as §1, §2, §3, §4, §5

[8] = biological target: KRAS G12C (Homo sapiens (Human), UniProt P01116+P62937, G12C); assay: as above; assay type: biochemical; settings: read-out: KRAS G12C FRET IC50
Sequence of KRAS G12C (P01116-2 other isoform, or with tags, fused parts or gaps G12C): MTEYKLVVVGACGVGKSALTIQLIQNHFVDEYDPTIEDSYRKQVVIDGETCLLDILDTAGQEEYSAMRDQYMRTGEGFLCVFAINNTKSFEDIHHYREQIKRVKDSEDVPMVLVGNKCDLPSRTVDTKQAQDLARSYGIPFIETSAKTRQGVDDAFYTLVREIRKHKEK
Sequence of KRAS G12C (P62937 whole entry): as the sequence (P62937 whole entry) above
Method: as §1, §2, §3, §4, §5

[9] = biological target: KRAS G13D (Homo sapiens (Human), UniProt P01116+P62937, G13D); assay: as above; assay type: biochemical; settings: read-out: KRAS G13D FRET data IC50
Sequence of KRAS G13D (P01116 other isoform, or with tags, fused parts or gaps G13D): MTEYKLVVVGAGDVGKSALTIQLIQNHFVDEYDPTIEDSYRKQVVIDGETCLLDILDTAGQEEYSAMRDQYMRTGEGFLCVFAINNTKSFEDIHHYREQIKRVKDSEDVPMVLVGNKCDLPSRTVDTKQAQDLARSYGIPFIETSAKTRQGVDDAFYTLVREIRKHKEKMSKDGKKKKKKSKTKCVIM
Sequence of KRAS G13D (P62937 whole entry): as the sequence (P62937 whole entry) above
Method: as §1, §2, §3, §4, §5

[10] = biological target: KRAS G13C (Homo sapiens (Human), UniProt P01116+P62937, G13C); assay: as above; assay type: biochemical; settings: read-out: KRAS G13C FRET IC50
Sequence of KRAS G13C (P01116 other isoform, or with tags, fused parts or gaps G13C): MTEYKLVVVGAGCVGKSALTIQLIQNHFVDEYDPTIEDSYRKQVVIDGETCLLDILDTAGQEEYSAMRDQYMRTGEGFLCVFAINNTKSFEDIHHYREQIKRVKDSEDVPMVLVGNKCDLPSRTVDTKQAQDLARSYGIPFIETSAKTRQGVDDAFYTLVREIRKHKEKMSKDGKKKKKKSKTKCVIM
Sequence of KRAS G13C (P62937 whole entry): as the sequence (P62937 whole entry) above
Method: as §1, §2, §3, §4, §5

EC50 [2]	IC50 [3]	IC50 [4]	IC50 [5]	IC50 [6]	IC50 [7]	IC50 [8]	IC50 [9]	IC50 [10]	SMILES	IC50 ([1]; Homo sapiens, CAPAN-1, 120 h)	IC50 [1]
< 5000 nM	1000 to 10000 nM	1000 to 10000 nM	1000 to 10000 nM	> 10000 nM	1000 to 10000 nM	100 to 1000 nM	1000 to 10000 nM	100 to 1000 nM	CCn1c(-c2cnccc2COC)c2c3cc(ccc31)-c1cc(O)cc(c1)C[C@H](NC(=O)[C@H](C(C)C)N(C)c1nccs1)C(=O)N1CCC[C@H](N1)C(=O)OCC(C)(C)C2 [Compound A86]	> 10000 nM	–
< 5000 nM	100 to 1000 nM	1000 to 10000 nM	100 to 1000 nM	100 to 1000 nM	100 to 1000 nM	100 to 1000 nM	10 to 100 nM	10 to 100 nM	CCn1c(-c2cnccc2COC)c2c3cc(ccc31)-c1cc(O)cc(c1)C[C@H](NC(=O)[C@H](C(C)C)N(C)C(=O)C1CN(C)C1)C(=O)N1CCC[C@H](N1)C(=O)OCC(C)(C)C2 [Compound A88]	> 10000 nM	–
< 5000 nM	1000 to 10000 nM	> 10000 nM	1000 to 10000 nM	1000 to 10000 nM	1000 to 10000 nM	1000 to 10000 nM	1000 to 10000 nM	100 to 1000 nM	CCn1c(-c2cccnc2[C@H](C)OC)c2c3cc(ccc31)-c1cccc(c1)C[C@H](NC(=O)[C@H](C(C)C)N(C)C(=O)[C@H]1CCN(C)C1)C(=O)N1CCC[C@H](N1)C(=O)OCC(C)(C)C2 [Compound A107]	1000 to 10000 nM	–
< 5000 nM	100 to 1000 nM	1000 to 10000 nM	1000 to 10000 nM	1000 to 10000 nM	1000 to 10000 nM	100 to 1000 nM	1000 to 10000 nM	100 to 1000 nM	CCn1c(-c2cccnc2[C@H](C)OC)c2c3cc(ccc31)-c1cc(O)cc(c1)C[C@H](NC(=O)[C@@H]1[C@H](C)CCN1C(C)=O)C(=O)N1CCC[C@H](N1)C(=O)OCC(C)(C)C2 [Compound A144]	1000 to 10000 nM	–
–	100 to 1000 nM	100 to 1000 nM	10 to 100 nM	100 to 1000 nM	100 to 1000 nM	10 to 100 nM	100 to 1000 nM	100 to 1000 nM	CCn1c(-c2cccnc2[C@H](C)OC)c2c3cc(ccc31)-c1csc(n1)C[C@H](NC(=O)[C@H](C(C)C)N(C)C(=O)N1CC(OC)C1)C(=O)N1CCC[C@H](N1)C(=O)OCC(C)(C)C2 [Compound A205]	–	10 to 100 nM
–	1000 to 10000 nM	> 10000 nM	1000 to 10000 nM	> 10000 nM	> 10000 nM	1000 to 10000 nM	1000 to 10000 nM	1000 to 10000 nM	CCn1c(-c2cccnc2[C@H](C)OC)c2c3cc(ccc31)-c1cccc(c1)C[C@H](NC(=O)[C@H](C(C)C)N(C)C(=O)[C@@H]1CCN(C3COC3)C1)C(=O)N1CCC[C@H](N1)C(=O)OCC(C)(C)C2 [Compound A206]	> 10000 nM	–
–	1000 to 10000 nM	> 10000 nM	1000 to 10000 nM	1000 to 10000 nM	1000 to 10000 nM	1000 to 10000 nM	1000 to 10000 nM	1000 to 10000 nM	CCn1c(-c2cccnc2[C@H](C)OC)c2c3cc(ccc31)-c1csc(n1)C[C@H](NC(=O)[C@H](C(C)C)N1CCC3(CCN(C)C3)C1=O)C(=O)N1CCC[C@H](N1)C(=O)OCC(C)(C)C2 (stereo partly shown) [Compound A213]	> 10000 nM	–
–	10 to 100 nM	100 to 1000 nM	10 to 100 nM	100 to 1000 nM	10 to 100 nM	10 to 100 nM	10 to 100 nM	10 to 100 nM	CCn1c(-c2cccnc2[C@H](C)OC)c2c3cc(ccc31)-c1cc(O)cc(c1)C[C@H](NC(=O)[C@H](C(C)C)N(C)C(=O)[C@@H]1NC[C@@H]3C[C@@H]31)C(=O)N1CCC[C@H](N1)C(=O)OCC(C)(C)C2 [Compound A217]	100 to 1000 nM	–
–	10 to 100 nM	10 to 100 nM	10 to 100 nM	100 to 1000 nM	10 to 100 nM	10 to 100 nM	100 to 1000 nM	10 to 100 nM	CCn1c(-c2cccnc2[C@H](C)OC)c2c3cc(ccc31)-c1cc(O)cc(c1)C[C@H](NC(=O)[C@H](C(C)C)N(C)C(=O)C1CCCC1)C(=O)N1CCC[C@H](N1)C(=O)OCC(C)(C)C2 [Compound A219]	100 to 1000 nM	–
–	100 to 1000 nM	100 to 1000 nM	10 to 100 nM	100 to 1000 nM	100 to 1000 nM	10 to 100 nM	10 to 100 nM	10 to 100 nM	CCn1c(-c2cccnc2[C@H](C)OC)c2c3cc(ccc31)-c1cc(O)cc(c1)C[C@H](NC(=O)[C@H](C(C)C)N(C)C(=O)C1CNCCO1)C(=O)N1CCC[C@H](N1)C(=O)OCC(C)(C)C2 (stereo partly shown) [Compound A229]	1000 to 10000 nM	–
–	100 to 1000 nM	100 to 1000 nM	100 to 1000 nM	100 to 1000 nM	100 to 1000 nM	100 to 1000 nM	10 to 100 nM	10 to 100 nM	CCn1c(-c2cccnc2[C@H](C)OC)c2c3cc(ccc31)-c1cc(O)cc(c1)C[C@H](NC(=O)[C@H](C(C)C)N(C)C(=O)[C@H]1CNC[C@@H]1C)C(=O)N1CCC[C@H](N1)C(=O)OCC(C)(C)C2 [Compound A251]	> 10000 nM	–
–	10 to 100 nM	100 to 1000 nM	10 to 100 nM	100 to 1000 nM	100 to 1000 nM	10 to 100 nM	100 to 1000 nM	100 to 1000 nM	CCn1c(-c2cccnc2[C@H](C)OC)c2c3cc(ccc31)-c1csc(n1)C[C@H](NC(=O)[C@H](C(C)C)N(C)C(=O)N1CC(C3COC3)C1)C(=O)N1CCC[C@H](N1)C(=O)OCC(C)(C)C2 [Compound A298]	10 to 100 nM	–
–	100 to 1000 nM	100 to 1000 nM	10 to 100 nM	100 to 1000 nM	100 to 1000 nM	10 to 100 nM	100 to 1000 nM	100 to 1000 nM	CO[C@@H](C)c1ncccc1-c1c2c3cc(ccc3n1CC(F)(F)F)-c1csc(n1)C[C@H](NC(=O)[C@H](C(C)C)N(C)C(=O)N1CC(N(C)C)C1)C(=O)N1CCC[C@H](N1)C(=O)OCC(C)(C)C2 [Compound A303]	–	10 to 100 nM
–	100 to 1000 nM	100 to 1000 nM	100 to 1000 nM	1000 to 10000 nM	1000 to 10000 nM	100 to 1000 nM	100 to 1000 nM	100 to 1000 nM	CCn1c(-c2cccnc2[C@H](C)OC)c2c3cc(ccc31)-c1cc(O)cc(c1)C[C@H](NC(=O)[C@H](C(C)C)N1CNCC1=O)C(=O)N1CCC[C@H](N1)C(=O)OCC(C)(C)C2 [Compound A345]	1000 to 10000 nM	–
–	1000 to 10000 nM	1000 to 10000 nM	1000 to 10000 nM	> 10000 nM	1000 to 10000 nM	1000 to 10000 nM	1000 to 10000 nM	100 to 1000 nM	CCn1c(-c2cccnc2[C@H](C)OC)c2c3cc(ccc31)-c1cc(O)cc(c1)C[C@H](NC(=O)C(C)=C(C)C)C(=O)N1CCC[C@H](N1)C(=O)OCC(C)(C)C2 [Compound A398]	1000 to 10000 nM	–
